The term Ki denotes the equilibrium dissociation constant of an inhibitor or competing ligand from its target. A high value points to weaker binding.

Assay [1] addresses CDK2/Cyclin E1 (Homo sapiens (Human), UniProt P24941). The assay is described as follows: biochemical. The following applies: CDK2_Ki (nM), phosphorylated CDK2/Cyclin E1, 150 μM ATP, Morrison tight-binding fit.
Procedure: The assay was initiated with the addition of ATP, following a fifteen minutes pre-incubation of enzyme and inhibitor at room temperature in the reaction mixture. The reaction was stopped after 45 minutes at room temperature by the addition of 50 μL of 80 mM EDTA, pH 7.5.
Assay [2] deals with CDK6/Cyclin D1 (Homo sapiens (Human), UniProt Q00534). The assay is described as follows: biochemical. Particulars: CDK6_Ki (nM), non-phosphorylated CDK6/Cyclin D1, 2 mM ATP, Morrison fit.
Chain of CDK6/Cyclin D1 (Q00534 whole entry): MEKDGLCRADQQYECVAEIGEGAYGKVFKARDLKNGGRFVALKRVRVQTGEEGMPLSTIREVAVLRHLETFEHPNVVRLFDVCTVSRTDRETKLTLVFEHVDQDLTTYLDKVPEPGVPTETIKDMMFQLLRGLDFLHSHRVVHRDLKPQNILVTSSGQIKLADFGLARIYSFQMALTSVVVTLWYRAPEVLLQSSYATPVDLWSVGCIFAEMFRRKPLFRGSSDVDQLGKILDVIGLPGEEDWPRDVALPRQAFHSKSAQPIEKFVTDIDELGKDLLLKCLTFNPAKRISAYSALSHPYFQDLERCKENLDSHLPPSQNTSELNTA
Chain of CDK6/Cyclin D1 (P24385 whole entry partner): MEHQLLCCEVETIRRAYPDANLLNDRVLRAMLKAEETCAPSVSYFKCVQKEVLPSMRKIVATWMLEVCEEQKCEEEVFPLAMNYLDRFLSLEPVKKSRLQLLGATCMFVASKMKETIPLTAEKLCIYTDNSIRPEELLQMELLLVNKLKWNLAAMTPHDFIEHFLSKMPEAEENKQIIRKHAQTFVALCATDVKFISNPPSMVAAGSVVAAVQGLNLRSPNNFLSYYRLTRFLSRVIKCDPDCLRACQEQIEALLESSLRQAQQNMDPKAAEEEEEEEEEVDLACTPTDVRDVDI

As for `Cc1cc2cnc(NC3CCN(S(=O)(=O)C4CCS(=O)(=O)C4)CC3)nc2n([C@H]2CCC[C@]2(C)O)c1=O` (single isomer, unassigned; isomer c) [Example 108, (+)-2-[(1-{[(3ξ)-1,1-dioxidotetrahydrothiophen-3-yl]sulfonyl}piperidin-4-yl)amino]-8-[(1R*,2R*)-2-hydroxy-2-methylcyclopentyl]-6-methylpyrido[2,3-d]pyrimidin-7(8H)-one-Isomer C], the Ki in assay [1] stood at 3.27 nM; in assay [2], 3.99 nM.

On to `Cc1cc2cnc(NC3CCN(S(C)(=O)=O)CC3)nc2n(C2CCCCC(O)C2)c1=O` (single isomer, unassigned; isomer c) [Example 225, 8-(3-hydroxycycloheptyl)-6-methyl-2-{[1-(methylsulfonyl)piperidin-4-yl]amino}pyrido[2,3-d]pyrimidin-7(8H)-one-Isomer C], for which the Ki in assay [1] came out at 4.63 nM; in assay [2], 3.13 nM.

Regarding `Cc1cc2cnc(NC3CCN(S(=O)(=O)C4CCS(=O)(=O)C4)CC3)nc2n([C@@H]2CCC[C@@]2(C)O)c1=O` (single isomer, unassigned; isomer d) [Example 109, (−)-2-[(1-{[(3ξ)-1,1-dioxidotetrahydrothiophen-3-yl]sulfonyl}piperidin-4-yl)amino]-8-[(1R*,2R*)-2-hydroxy-2-methylcyclopentyl]-6-methylpyrido[2,3-d]pyrimidin-7(8H)-one-Isomer D], the figures for the inhibition constant (Ki) in assay [1] and in assay [2] were 0.14 nM and 0.19 nM, respectively.

Regarding `Cc1cc2cnc(NC3CCN(S(C)(=O)=O)CC3)nc2n(C2CCCCC(O)C2)c1=O` (single isomer, unassigned; isomer d) [Example 226, 8-(3-hydroxycycloheptyl)-6-methyl-2-{[1-(methylsulfonyl)piperidin-4-yl]amino}pyrido[2,3-d]pyrimidin-7(8H)-one-Isomer D], the results for the inhibition constant Ki in assay [1] and in assay [2] were 310 nM and 6.58 nM, respectively.

Take `CC1CCC[C@@H]1n1c(=O)c(CC(N)=O)cc2cnc(NC3CCN(S(C)(=O)=O)CC3)nc21` (stereo in doubt) [Example 166, 2-(8-[(1S,2S)-2-methylcyclopentyl]-2-{[1-(methylsulfonyl)piperidin-4-yl]amino}-7-oxo-7,8-dihydropyrido[2,3-d]pyrimidin-6-yl)acetamide]: the Ki amounted to 2.23 nM in assay [1] and 6.71 nM in assay [2].

Consider `CNS(=O)(=O)N1CCC(Nc2ncc3ccc(=O)n(C4CCCC4)c3n2)CC1` [Example 11, 4-[(8-cyclopentyl-7-oxo-7,8-dihydropyrido[2,3-d]pyrimidin-2-yl)amino]-N-methylpiperidine-1-sulfonamide], for which the inhibitory constant (Ki) amounted to 0.67 nM in assay [1] and 2.99 nM in assay [2].

Consider `NS(=O)(=O)N1CCC(Nc2ncc3ccc(=O)n(C4CCCC4)c3n2)CC1` [Example 13, 4-[(8-cyclopentyl-7-oxo-7,8-dihydropyrido[2,3-d]pyrimidin-2-yl)amino]piperidine-1-sulfonamide], for which the Ki in assay [1] was 0.19 nM; in assay [2], 0.88 nM.

`COCCS(=O)(=O)N1CCC(Nc2ncc3ccc(=O)n(C4CCCC4)c3n2)CC1` [Example 15, 8-cyclopentyl-2-({1-[(2-methoxyethyl)sulfonyl]piperidin-4-yl}amino)pyrido[2,3-d]pyrimidin-7(8H)-one]: the Ki in assay [1] was 0.46 nM; in assay [2], 0.76 nM.

For `CCS(=O)(=O)N1CCC(Nc2ncc3ccc(=O)n(C4CCCC4)c3n2)CC1` [Example 16, 8-cyclopentyl-2-{[1-(ethylsulfonyl)piperidin-4-yl]amino}pyrido[2,3-d]pyrimidin-7(8H)-one], the inhibition constant Ki in assay [1] came to 0.48 nM; in assay [2] it was 1.14 nM.

As for `CC(C)(O)CS(=O)(=O)N1CCC(Nc2ncc3ccc(=O)n(C4CCCC4)c3n2)CC1` [Example 17, 8-cyclopentyl-2-({1-[(2-hydroxy-2-methylpropyl)sulfonyl]piperidin-4-yl}amino)pyrido[2,3-d]pyrimidin-7(8H)-one], the Ki in assay [1] was 1.79 nM; in assay [2] it was 2.33 nM.

In the case of `CS(=O)(=O)CS(=O)(=O)N1CCC(Nc2ncc3ccc(=O)n(C4CCCC4)c3n2)CC1` [Example 18, 8-cyclopentyl-2-[(1-{[(methylsulfonyl)methyl]sulfonyl}piperidin-4-yl)amino]pyrido[2,3-d] pyrimidin-7(8H)-one], the inhibitory constant (Ki) was found to be 1.19 nM in assay [1] and 2.44 nM in assay [2].

In the case of `CNS(=O)(=O)N1CCC(Nc2ncc3ccc(=O)n(C4CCCCCC4)c3n2)CC1` [Example 20, 4-[(8-cycloheptyl-7-oxo-7,8-dihydropyrido[2,3-d]pyrimidin-2-yl)amino]-N-methylpiperidine-1-sulfonamide], the figures for the inhibition constant (Ki) in assay [1] and in assay [2] were 0.42 nM and 1.95 nM, respectively.

Take `NS(=O)(=O)N1CCC(Nc2ncc3ccc(=O)n(C4CCCCCC4)c3n2)CC1` [Example 21, 4-[(8-cycloheptyl-7-oxo-7,8-dihydropyrido[2,3-d]pyrimidin-2-yl)amino]piperidine-1-sulfonamide]: the inhibition constant Ki in assay [1] was 0.29 nM; in assay [2], 7 nM.

On to `CNS(=O)(=O)N1CCC(Nc2ncc3cc(C)c(=O)n(C4CCCC4)c3n2)CC1` [Example 23, 4-[(8-cyclopentyl-6-methyl-7-oxo-7,8-dihydropyrido[2,3-d]pyrimidin-2-yl)amino]-N-methylpiperidine-1-sulfonamide], for which the Ki in assay [1] worked out at 0.78 nM; in assay [2] it was 0.62 nM.

With `Cc1cc2cnc(NC3CCN(S(N)(=O)=O)CC3)nc2n(C2CCCC2)c1=O` [Example 25, 4-[(8-cyclopentyl-6-methyl-7-oxo-7,8-dihydropyrido[2,3-d]pyrimidin-2-yl)amino]piperidine-1-sulfonamide], the inhibitory constant (Ki) was determined as 0.22 nM in assay [1] and 0.23 nM in assay [2].

Consider `CS(=O)(=O)N1CCC(Nc2ncc3cc(N)c(=O)n(C4CCCC4)c3n2)CC1` [Example 28, 6-amino-8-cyclopentyl-2-{[1-(methylsulfonyl)piperidin-4-yl]amino}pyrido[2,3-d]pyrimidin-7(8H)-one], for which the Ki came to 1.88 nM in assay [1] and 1.2 nM in assay [2].

As to `CS(=O)(=O)N1CCC(Nc2ncc3cc(C(F)F)c(=O)n(C4CCCC4)c3n2)CC1` [Example 30, 8-cyclopentyl-6-(difluoromethyl)-2-{[1-(methylsulfonyl)piperidin-4-yl]amino}pyrido[2,3-d]pyrimidin-7(8H)-one], the inhibition constant (Ki) in assay [1] was 1.35 nM; in assay [2], 0.34 nM.

Regarding `CS(=O)(=O)N1CCC(Nc2ncc3cc(C(F)(F)C(=O)O)c(=O)n(C4CCCC4)c3n2)CC1` [Example 31, (8-cyclopentyl-2-{[1-(methylsulfonyl)piperidin-4-yl]amino}-7-oxo-7,8-dihydropyrido[2,3-d]pyrimidin-6-yl)(difluoro)acetic acid], the Ki in assay [1] came out at 2.43 nM; in assay [2], 0.87 nM.

For `Cc1cc2cnc(NC3CCN(S(C)(=O)=O)CC3)nc2n([C@@H]2CCC[C@@H]2C)c1=O` [Example 37, 6-methyl-8-[(1R,2S)-2-methylcyclopentyl]-2-{[1-(methylsulfonyl)piperidin-4-yl]amino}pyrido[2,3-d]pyrimidin-7(8H)-one], the inhibition constant (Ki) in assay [1] and in assay [2] was 0.06 nM throughout.

With `C[C@H]1CCC[C@H]1n1c(=O)c(Cl)cc2cnc(NC3CCN(S(C)(=O)=O)CC3)nc21` [Example 38, 6-chloro-8-[(1R,2S)-2-methylcyclopentyl]-2-{[1-(methylsulfonyl)piperidin-4-yl]amino}pyrido[2,3-d]pyrimidin-7(8H)-one], the results for the inhibition constant (Ki) in assay [1] and in assay [2] were 0.27 nM and 0.42 nM, respectively.

`C[C@H]1CCC[C@H]1n1c(=O)c(CCO)cc2cnc(NC3CCN(S(C)(=O)=O)CC3)nc21` [Example 40, 6-(2-hydroxyethyl)-8-[(1R,2S)-2-methylcyclopentyl]-2-{[1-(methylsulfonyl)piperidin-4-yl]amino}pyrido[2,3-d]pyrimidin-7(8H)-one]: the Ki in assay [1] was 0.08 nM; in assay [2], 0.14 nM.

On to `C[C@@H]1CCC[C@@H]1n1c(=O)c(CCO)cc2cnc(NC3CCN(S(C)(=O)=O)CC3)nc21` [Example 41, 6-(2-hydroxyethyl)-8-[(1S,2R)-2-methylcyclopentyl]-2-{[1-(methylsulfonyl)piperidin-4-yl]amino}pyrido[2,3-d]pyrimidin-7(8H)-one], for which the inhibition constant (Ki) amounted to 0.48 nM in assay [1] and 0.36 nM in assay [2].

Regarding `CNS(=O)(=O)N1CCC(Nc2ncc3cc(C)c(=O)n([C@@H]4CCC[C@@H]4C)c3n2)CC1` [Example 42, N-methyl-4-({6-methyl-8-[(1R,2S)-2-methylcyclopentyl]-7-oxo-7,8-dihydropyrido[2,3-d]pyrimidin-2-yl}amino)piperidine-1-sulfonamide], the values for the Ki in assay [1] and in assay [2] were 155 nM and 46.1 nM, respectively.

Turning to `CNS(=O)(=O)N1CCC(Nc2ncc3ccc(=O)n([C@@H]4CCC[C@@H]4C)c3n2)CC1` [Example 44, N-methyl-4-({8-[(1R,2S)-2-methylcyclopentyl]-7-oxo-7,8-dihydropyrido[2,3-d]pyrimidin-2-yl}amino)piperidine-1-sulfonamide], the figures for the Ki in assay [1] and in assay [2] were 0.09 nM and 0.82 nM, respectively.

Regarding `C[C@H]1CCC[C@H]1n1c(=O)c(CC(N)=O)cc2cnc(NC3CCN(S(C)(=O)=O)CC3)nc21` [Example 47, 2-(8-[(1R,2S)-2-methylcyclopentyl]-2-{[1-(methylsulfonyl)piperidin-4-yl]amino}-7-oxo-7,8-dihydropyrido[2,3-d]pyrimidin-6-yl)acetamide], the Ki in assay [1] stood at 0.27 nM; in assay [2], 1.09 nM.

Turning to `COCc1cc2cnc(NC3CCN(S(C)(=O)=O)CC3)nc2n([C@@H]2CCC[C@@H]2C)c1=O` [Example 48, 6-(methoxymethyl)-8-[(1R,2S)-2-methylcyclopentyl]-2-{[1-(methylsulfonyl)piperidin-4-yl]amino}pyrido[2,3-d]pyrimidin-7(8H)-one], the values for the Ki in assay [1] and in assay [2] were 1.39 nM and 0.54 nM, respectively.

In the case of `COCc1cc2cnc(NC3CCN(S(C)(=O)=O)CC3)nc2n([C@H]2CCC[C@H]2C)c1=O` [Example 49, 6-(methoxymethyl)-8-[(1S,2R)-2-methylcyclopentyl]-2-{[1-(methylsulfonyl)piperidin-4-yl]amino}pyrido[2,3-d]pyrimidin-7(8H)-one], the figures for the Ki in assay [1] and in assay [2] were 4.43 nM and 1.63 nM, respectively.

The values above are taken from patent US10233188B2, “CDK2/4/6 inhibitors” (priority 2016, dated 2019).
